# Where two headings read alike, the source gives them in different places.
# Columns and labels:
# [1] = target: T1, full-length NS3/NS4A-2 (HCV NS3 protease) (Hepatitis C virus genotype 1a, UniProt P27958); experiment: NS3-NS4 protease assay / NS3 inhibition assay (RETS1 substrate, fluorescence kinetic read); type: biochemical
# T1 construct: Recombinant E. coli or Baculovirus full-length NS3 was diluted to 3.33 μM with assay buffer; made in house; host or cells: E. coli or baculovirus (BV) expression system
# Method in brief: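 Ki values come from IC50 fits corrected via Ki=IC50/(1+[S]/Km), with Km 2.03 μM for E. coli and 1.74 μM for baculovirus full-length NS3. Enzyme (2 or 3 nM NS3, respectively, complexed with NS4A-2) sat with compound, top concentration 50 microM, for 10 min at room temperature. Cleavage of RETS1 (8 μM working solution) was then followed by fluorescence (335/495 nm) over 30 min.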
# [2] = tested on: HCV sub-genomic replicon in GS4.3 cells (HuH-7 hepatoma cells); experiment: Quantitation by ELISA of Neomycin phosphotransferase II (NPTII) in the HCV sub-genomic replicon, GS4.3; type: cell-based, hepatitis C virus; conditions: Hepatitis C virus, Huh-7; GS4.3 cells, 72 h incubation, NPTII ELISA; read-out: Replicon EC50
# Method in brief: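 Replicon-bearing HuH-7 (GS4.3) cells were exposed to compounds for 72 h in G418-free medium, top final concentration 10 μM, 1% DMSO. Lysates went to an NPTII ELISA read at 450 nm. Signal was normalised to DMSO-treated wells and EC50 was derived by four-parameter curve fitting.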
# [3] = recombinant E. coli or Baculovirus full-length NS3 with NS4A-2, read-out: NS3-NS4 IC50
# T1 sequence (P27958 1027-1657): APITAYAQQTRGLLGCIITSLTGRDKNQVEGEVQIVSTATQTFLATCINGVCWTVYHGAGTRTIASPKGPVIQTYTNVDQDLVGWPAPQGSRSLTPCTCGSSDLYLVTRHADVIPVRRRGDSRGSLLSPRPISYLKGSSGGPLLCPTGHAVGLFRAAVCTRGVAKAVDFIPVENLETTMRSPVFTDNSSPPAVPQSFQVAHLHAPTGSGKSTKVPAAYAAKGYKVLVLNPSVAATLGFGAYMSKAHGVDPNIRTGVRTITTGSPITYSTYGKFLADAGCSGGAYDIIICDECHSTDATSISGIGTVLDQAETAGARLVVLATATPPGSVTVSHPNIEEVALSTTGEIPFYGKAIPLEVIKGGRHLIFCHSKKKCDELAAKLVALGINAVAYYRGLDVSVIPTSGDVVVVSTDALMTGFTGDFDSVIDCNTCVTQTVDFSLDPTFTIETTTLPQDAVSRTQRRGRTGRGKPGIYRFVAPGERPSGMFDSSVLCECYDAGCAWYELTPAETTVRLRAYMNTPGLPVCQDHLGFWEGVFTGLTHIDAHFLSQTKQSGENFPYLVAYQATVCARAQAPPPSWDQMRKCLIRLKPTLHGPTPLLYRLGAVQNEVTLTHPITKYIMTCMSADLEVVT
SMILES,"IC50 [1, 3] [nM]",EC50 [2] [nM],IC50 [1] [nM]
CN(C)[C@H]1CCCCC/C=C\[C@@H]2C[C@@]2(C(=O)NS(=O)(=O)C2CC2)NC(=O)[C@@H]2C[C@@H](OC(=O)N3Cc4cccc(F)c4C3)CN2C1=O [Compound 908],< 1000,< 10000,
COCC1c2cccc(F)c2CCN1C(=O)O[C@@H]1CC2C(=O)N[C@]3(C(=O)NS(=O)(=O)C4CC4)C[C@H]3/C=C\CCCCC[C@H](N)C(=O)N2C1 (some centres unmarked) [Compound 106],< 1000,> 10000,
"CC(C)(C)OC(=O)N[C@H]1COCCC/C=C\[C@@H]2C[C@@]2(C(=O)NS(=O)(=O)C2CC2)NC(=O)[C@@H]2C[C@@H](OC(=O)N3Cc4cccc(F)c4C3)CN2C1=O [Compound 1020, (2R,6S,13aS,14aR,16aS,Z)-6-(tert-butoxycarbonylamino)-14a-(cyclopropylsulfonylcarbamoyl)-5,16-dioxo-2,3,5,6,7,9,10,11,13a,14,14a,15,16,16a-tetradecahydro-1H-cyclopropa(i)pyrrolo[1,2-e][1,5,8]oxadiazacyclopentadecin-2-yl 4-fluoroisoindoline-2-carboxylate]",,< 100,< 100
O=C(N[C@H]1CCCCC/C=C\[C@@H]2C[C@@]2(C(=O)NS(=O)(=O)Nc2ccc(Cl)cc2)NC(=O)[C@@H]2C[C@@H](OC(=O)N3Cc4cccc(F)c4C3)CN2C1=O)OC1CCCC1 [Compound 219],< 100,< 10000,
O=C(N[C@H]1CCCCC/C=C\[C@@H]2C[C@@]2(C(=O)O)NC(=O)[C@@H]2C[C@@H](OC(=O)N3Cc4ccccc4C3)CN2C1=O)C1CC1 [Compound 123],< 100,< 10000,
CC(C)(C)OC(=O)N[C@H]1CCC(F)(F)CC/C=C\[C@@H]2C[C@@]2(C(=O)O)NC(=O)[C@@H]2C[C@@H](OC(=O)N3CCc4ccccc4C3)CN2C1=O [Compound 1013],< 100,< 100,
O=C(N[C@H]1CCCCC/C=C\[C@@H]2C[C@@]2(C(=O)O)NC(=O)[C@@H]2C[C@@H](OC(=O)N3Cc4cccc(Cl)c4C3)CN2C1=O)OC1CCCC1 [Compound 138],< 100,< 1000,
O=C(N[C@H]1CCCCC/C=C\[C@@H]2C[C@@]2(C(=O)O)NC(=O)[C@@H]2C[C@@H](OC(=O)N3Cc4cccc(F)c4C3)CN2C1=O)OC1CCCC1 [Compound 116],< 100,< 10000,
CC(C)(C)OC(=O)N[C@H]1CCCCC/C=C\[C@@H]2C[C@@]2(C(=O)NCc2cccc(C(O)C(F)(F)F)c2)NC(=O)[C@@H]2C[C@@H](OC(=O)N3Cc4cccc(F)c4C3)CN2C1=O (some centres unmarked) [Compound 605],< 1000,< 1000,
O=C1N[C@]2(C(=O)NS(=O)(=O)C3CC3)C[C@H]2/C=C\CCCCC[C@H](NC2CCC2)C(=O)N2C[C@H](OC(=O)N3Cc4cccc(F)c4C3)C[C@@H]12 [Compound 907],< 100,< 1000,
CC(C)(C)C(=O)N[C@H]1CCCCC/C=C\[C@@H]2C[C@@]2(C(=O)NC#N)NC(=O)C2C[C@@H](OC(=O)N3Cc4cccc(F)c4C3)CN2C1=O (some centres unmarked) [Compound 640],< 100,> 10000,
O=C1N[C@]2(C(=O)O)C[C@H]2/C=C\CCCCC[C@H](Nc2c(N3CCC3)c(=O)c2=O)C(=O)N2C[C@H](OC(=O)N3Cc4cccc(F)c4C3)C[C@@H]12 [Compound 238],< 100,< 10000,
O=C(CCO)N[C@H]1CCCCC/C=C\[C@@H]2C[C@@]2(C(=O)NS(=O)(=O)C2CC2)NC(=O)[C@@H]2C[C@@H](OC(=O)N3Cc4cccc(F)c4C3)CN2C1=O [Compound 251],< 100,< 10000,
O=C(N[C@H]1CCCCC/C=C\[C@@H]2C[C@@]2(C(=O)NC(=O)C2CC2)NC(=O)[C@@H]2C[C@@H](OC(=O)N3CCc4ccccc4C3)CN2C1=O)OC1CCCC1 [Compound 706],< 100,< 100,
CC(C)(C)OC(=O)N[C@H]1CCCCC/C=C\[C@@H]2C[C@@]2(C(=O)NS(=O)(=O)C2CC2)NC(=O)[C@@H]2C[C@@H](OC(=O)N3CCc4cccc(Cl)c4C3)CN2C1=O [Compound 255],< 100,< 100,
CC(C)(C)OC(=O)N[C@H]1CCCCC/C=C\[C@@H]2C[C@@]2(C(=O)NS(=O)(=O)C2CC2)NC(=O)[C@@H]2C[C@@H](OC(=O)N3Cc4ccc(C(F)(F)F)cc4C3)CN2C1=O [Compound 112],< 100,< 100,
N[C@H]1CCCCC/C=C\[C@@H]2C[C@@]2(C(=O)NS(=O)(=O)NC2CCCC2)NC(=O)[C@@H]2C[C@@H](OC(=O)N3Cc4cccc(Cl)c4C3)CN2C1=O [Compound 221],< 100,< 10000,

SMILES,"IC50 [1, 3] [nM]",EC50 [2] [nM],IC50 [1] [nM]
"O=C1N[C@]2(C(=O)NS(=O)(=O)C3CC3)C[C@H]2/C=C\CCCCC[C@H](Nc2c(N3CCC3)c(=O)c2=O)C(=O)N2C[C@H](OC(=O)N3Cc4cccc(Cl)c4C3)C[C@@H]12 [Compound 241, (2R,6S,13aS,14aR,16aS,Z)-6-(2-(azetidin-1-yl)-3,4-dioxocyclobut-1-enylamino)-14a-(cyclopropylsulfonylcarbamoyl)-5,16-dioxo-1,2,3,5,6,7,8,9,10,11,13a,14,14a,15,16,16a-hexadecahydrocyclopropa[e]pyrrolo[1,2-a][1,4]diazacyclopentadecin-2-yl 4-chloroisoindoline-2-carboxylate]",< 100,< 1000,
N#CNC(=O)[C@@]12C[C@H]1/C=C\CCCCC[C@H](NC(=O)OC1CCCC1)C(=O)N1C[C@H](OC(=O)N3Cc4cccc(F)c4C3)CC1C(=O)N2 (some centres unmarked) [Compound 637],< 100,> 10000,
CC(C)(C)CCN[C@H]1CCCCC/C=C\[C@@H]2C[C@@]2(C(=O)NS(=O)(=O)C2CC2)NC(=O)[C@@H]2C[C@@H](OC(=O)N3Cc4cccc(F)c4C3)CN2C1=O [Compound 912],< 100,< 100,
N[C@H]1CCCCC/C=C\[C@@H]2C[C@@]2(C(=O)NS(=O)(=O)C2CC2)NC(=O)[C@@H]2C[C@@H](OC(=O)N3Cc4cccc(F)c4C3)CN2C1=O [Compound 107],< 100,< 10000,
CC(C)(C)OC(=O)N[C@H]1CCC(F)(F)CC/C=C\[C@@H]2C[C@@]2(C(=O)O)NC(=O)[C@@H]2C[C@@H](OC(=O)N3Cc4ccccc4C3)CN2C1=O [Compound 1007],< 100,< 10000,
CC(C)N(C)S(=O)(=O)NC(=O)[C@@]12C[C@H]1/C=C\CCCCC[C@H](NC(=O)OC(C)(C)C)C(=O)N1C[C@H](OC(=O)N3Cc4ccccc4C3)C[C@H]1C(=O)N2 [Compound 201],< 100,< 100,
CN(C(=O)[C@@]12C[C@H]1/C=C\CCCCC[C@H](NC(=O)OC(C)(C)C)C(=O)N1C[C@H](OC(=O)N3Cc4cccc(F)c4C3)C[C@H]1C(=O)N2)S(=O)(=O)C1CC1 [Compound 264],< 10000,> 10000,
O=C(N[C@H]1CCCCC/C=C\[C@@H]2C[C@@]2(C(=O)NS(=O)(=O)N2CCC(F)(F)C2)NC(=O)C2C[C@@H](OC(=O)N3Cc4ccccc4C3)CN2C1=O)OC1CCCC1 (some centres unmarked) [Compound 227],< 100,< 100,
CC(C)(C)OC(=O)N[C@H]1CCCCC/C=C\[C@@H]2C[C@@]2(C(=O)O)NC(=O)[C@@H]2C[C@@H](OC(=O)N3Cc4c(Cl)ccc(Cl)c4C3)CN2C1=O [Compound 144],< 100,< 10000,
O=C(N[C@H](C(=O)N[C@H]1CCCCC/C=C\[C@@H]2C[C@@]2(C(=O)NS(=O)(=O)C2CC2)NC(=O)[C@@H]2C[C@@H](OC(=O)N3Cc4cccc(Cl)c4C3)CN2C1=O)C1CCCCC1)c1cnccn1 [Compound 263],< 100,< 100,
CC(C)(C)OC(=O)N[C@H]1CCCCC/C=C\[C@@H]2C[C@@]2(C(=O)NS(=O)(=O)N2CCC(F)(F)C2)NC(=O)[C@@H]2C[C@@H](OC(=O)N3Cc4cccc(Cl)c4C3)CN2C1=O [Compound 211],< 100,< 100,
CN(C)S(=O)(=O)NC(=O)[C@@]12C[C@H]1/C=C\CCCCC[C@H](NC(=O)OC(C)(C)C)C(=O)N1C[C@H](OC(=O)N3Cc4c(Cl)ccc(Cl)c4C3)C[C@H]1C(=O)N2 [Compound 206],< 100,< 100,
O=C1N[C@]2(C(=O)NS(=O)(=O)C3CC3)C[C@H]2/C=C\CCCCC[C@H](Nc2c(NCC(F)(F)F)c(=O)c2=O)C(=O)N2C[C@H](OC(=O)N3Cc4cccc(F)c4C3)C[C@@H]12 [Compound 196],< 100,< 10000,
CC(C)(C)OC(=O)N[C@H]1CCCCC/C=C\[C@@H]2C[C@@]2(C(=O)NS(=O)(=O)C2(Cc3ccccc3)CC2)NC(=O)[C@@H]2C[C@@H](OC(=O)N3Cc4cccc(Cl)c4C3)CN2C1=O [Compound 161],< 100,< 100,
O=C1N[C@]2(C(=O)NS(=O)(=O)C3CC3)C[C@H]2/C=C\CCCCC[C@H](NC(=O)N2CCCC2)C(=O)N2C[C@H](OC(=O)N3Cc4cccc(F)c4C3)C[C@@H]12 [Compound 243],< 100,< 100,
CNC(=O)[C@@H](NC(=O)[C@@]12C[C@H]1/C=C\CCCCC[C@H](NC(=O)OC(C)(C)C)C(=O)N1C[C@H](OC(=O)N3Cc4cccc(F)c4C3)C[C@H]1C(=O)N2)c1ccc(F)cc1 [Compound 631],< 100,< 1000,
CNC(=O)NC(=O)[C@@]12C[C@H]1/C=C\CCCCC[C@H](NC(=O)OC(C)(C)C)C(=O)N1C[C@H](OC(=O)N3Cc4ccccc4C3)C[C@H]1C(=O)N2 [Compound 702],< 1000,< 1000,
